Measured values from US20260159499A1, “COMPOUND AS FAK INHIBITOR AND USE THEREOF” (WIGEN BIOMEDICINE TECHNOLOGY (SHANGHAI) CO., LTD., priority 2021, published 2026).

How the values were obtained:
PC3 cells [1] = experiment: PC3 cell proliferation, 2D activity detection; assay type: cell-based, human; conditions: PC3, 2D, 72 h, class symbol, read-out: 2D IC50 against PC3 cells
Protocol: 2D activity detection: 1200 PC3 cells were seeded in a 96-well plate. After overnight adherence culture, the compound serially diluted was added. 72 h after addition, Cell Titer-Lumi (Beyotime C0068XL) was added to measure the ATP content in the cells. The growth of the cells was evaluated, and IC50 of the compounds against cell growth was calculated.

FAK recombinant protein = FAK recombinant protein (Homo sapiens, UniProt Q05397); experiment: Inhibitory activity against FAK enzyme; assay type: biochemical; conditions: TK substrate, ATP
Protocol: The compound serially diluted with DMSO and a FAK recombinant protein were mixed, and the mixture was left to stand at room temperature for 10 min. A biotin-labeled TK substrate (TK) and ATP were then added. […] After the mixture was incubated at room temperature for 1 h, the fluorescence intensity at 615 nm and 665 nm was measured. The ratio of the fluorescence intensity at 665 nm and 615 nm was calculated. The inhibition percentages and IC50 of the compounds were calculated compared to the DMSO control group.

PC3 cells [2] = experiment: PC3 cell proliferation, 3D activity detection; assay type: cell-based, human; conditions: PC3, 3D culture, 14 days, read-out: 3D IC50 against PC3 cells
Protocol: 3D activity detection: PC3 cells were seeded in a 96-well plate at 1200 cells/well, and 3D culture was performed. 14 days after the compound serially diluted was added, the growth of the cells was determined. The inhibition percentage and IC50 of the compound were calculated compared to the DMSO control group.

[3] = Homo sapiens, PC-3, 336 h, class symbol

Sequence of FAK recombinant protein (Q05397 whole entry, species assumed): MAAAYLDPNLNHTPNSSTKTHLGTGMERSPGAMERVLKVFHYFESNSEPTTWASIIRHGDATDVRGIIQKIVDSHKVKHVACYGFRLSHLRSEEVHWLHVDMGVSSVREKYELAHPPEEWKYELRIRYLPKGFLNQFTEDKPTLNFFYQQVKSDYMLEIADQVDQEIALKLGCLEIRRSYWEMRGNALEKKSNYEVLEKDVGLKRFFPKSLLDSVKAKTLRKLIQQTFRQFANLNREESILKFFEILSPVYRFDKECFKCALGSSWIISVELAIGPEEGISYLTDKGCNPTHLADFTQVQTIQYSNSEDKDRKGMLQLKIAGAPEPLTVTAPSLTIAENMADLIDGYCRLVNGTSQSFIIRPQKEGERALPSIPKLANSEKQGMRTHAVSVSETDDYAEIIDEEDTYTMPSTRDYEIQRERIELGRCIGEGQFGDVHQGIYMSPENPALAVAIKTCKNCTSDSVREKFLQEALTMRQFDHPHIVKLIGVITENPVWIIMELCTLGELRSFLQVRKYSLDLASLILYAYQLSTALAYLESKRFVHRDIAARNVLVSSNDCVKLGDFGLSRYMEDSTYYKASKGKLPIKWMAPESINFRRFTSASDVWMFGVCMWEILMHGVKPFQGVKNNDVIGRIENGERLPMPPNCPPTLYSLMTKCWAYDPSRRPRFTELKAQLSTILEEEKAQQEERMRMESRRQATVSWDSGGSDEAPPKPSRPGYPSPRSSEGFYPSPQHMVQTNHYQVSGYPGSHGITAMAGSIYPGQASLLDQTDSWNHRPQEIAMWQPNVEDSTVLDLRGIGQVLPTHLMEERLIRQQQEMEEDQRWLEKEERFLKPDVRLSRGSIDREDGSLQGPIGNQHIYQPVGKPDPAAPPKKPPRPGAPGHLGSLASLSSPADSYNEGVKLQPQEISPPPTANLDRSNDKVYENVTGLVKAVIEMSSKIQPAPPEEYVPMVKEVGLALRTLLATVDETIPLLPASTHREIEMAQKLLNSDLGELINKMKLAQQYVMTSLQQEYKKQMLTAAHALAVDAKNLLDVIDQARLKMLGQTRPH

| Compound | IC50 (PC3 cells [1]; Homo sapiens, PC-3) [nM] | IC50 (FAK recombinant protein) [nM] | IC50 (PC3 cells [2]; [3]) [nM] | IC50 (PC3 cells [2]; Homo sapiens, PC-3, 336 h, numeric (mean where marked *)) [nM] | IC50 (PC3 cells [1]) [nM] | IC50 (PC3 cells [2]; class symbol) [nM] |
| --- | --- | --- | --- | --- | --- | --- |
| CNC(=O)c1ccccc1Oc1nc(Nc2cc(F)c(C(=O)NC3CC4(CCN(C)CC4)C3)cc2OC)ncc1C(F)(F)F [Compound 1, 2-fluoro-5-methoxy-N-(7-methyl-7-azaspiro[3.5]nonan-2-yl)-4-((4-(2-(methylcarbamoyl)phenoxy)-5-(trifluoromethyl)pyrimidin-2-yl)amino)benzamide] | > 2000 | < 10 | 5 to 50 |  |  |  |
| CNC(=O)c1ccccc1Oc1nc(Nc2cc(F)c(C(=O)NC3CCC4(CC3)CN(C)C4)cc2OC)ncc1C(F)(F)F [Compound 2] | > 2000 | < 10 | 5 to 50 |  |  |  |
| CNC(=O)c1ccccc1Oc1nc(Nc2cc(F)c(C(=O)NC3CC4(CCN(C)CC4)CO3)cc2OC)ncc1C(F)(F)F (stereo not drawn) [Compound 3] | > 2000 | < 10 | 5 to 50 |  |  |  |
| CNC(=O)c1ccccc1Oc1nc(Nc2cc(F)c(C(=O)NC3CC4(CCN(C)C4)CO3)cc2OC)ncc1C(F)(F)F (stereo not drawn) [Compound 5] | > 2000 | < 10 | 5 to 50 |  |  |  |
| CNC(=O)c1ccccc1Oc1nc(Nc2cc(F)c(C(=O)NC3CCC4(CC3)CCN(C)CC4)cc2OC)ncc1C(F)(F)F [Compound 9] | > 2000 | 10 to 50 | 5 to 50 |  |  |  |
| COc1cc(C(=O)NC2CC3(CCN(C)CC3)C2)c(F)cc1Nc1ncc(C(F)(F)F)c(Oc2ccccc2N(C)S(C)(=O)=O)n1 [Compound 10] | > 2000 | < 10 | < 5 |  |  |  |
| COc1cc(C(=O)NC2CCC3(CCN(C)CC3)C2)c(F)cc1Nc1ncc(C(F)(F)F)c(Oc2ccccc2N(C)S(C)(=O)=O)n1 (stereo not drawn) [Compound 11] | > 2000 | < 10 | 5 to 50 |  |  |  |
| COc1cc(C(=O)NC2CC3(CCN(C)CC3)CO2)c(F)cc1Nc1ncc(C(F)(F)F)c(Oc2ccccc2N(C)S(C)(=O)=O)n1 (stereo not drawn) [Compound 12] | > 2000 | < 10 | < 5 |  |  |  |
| COc1cc(C(=O)NC2CCC3(CCN(C)C3)C2)c(F)cc1Nc1ncc(C(F)(F)F)c(Oc2ccccc2N(C)S(C)(=O)=O)n1 (stereo not drawn) [Compound 13] | > 2000 | < 10 | 5 to 50 |  |  |  |
| COc1cc(C(=O)NC2CC3(CCN(C)C3)CO2)c(F)cc1Nc1ncc(C(F)(F)F)c(Oc2ccccc2N(C)S(C)(=O)=O)n1 (stereo not drawn) [Compound 14] | > 2000 | < 10 | < 5 |  |  |  |
| COc1cc(C(=O)NC2COC3(CCN(C)C3)C2)c(F)cc1Nc1ncc(C(F)(F)F)c(Oc2ccccc2N(C)S(C)(=O)=O)n1 (stereo not drawn) [Compound 15] | > 2000 | < 10 | < 5 |  |  |  |
| COc1cc(C(=O)NC2CCC3(CC2)CCN(C)CC3)c(F)cc1Nc1ncc(C(F)(F)F)c(Oc2ccccc2N(C)S(C)(=O)=O)n1 [Compound 16] | > 2000 | 10 to 50 | 5 to 50 |  |  |  |
| COc1cc(C(=O)NC2CCC3(CC2)CN(C)C3)c(F)cc1Nc1ncc(C(F)(F)F)c(Oc2ccccc2N(C)S(C)(=O)=O)n1 [Compound 17] | > 2000 | < 10 | 5 to 50 |  |  |  |
| COc1cc(C(=O)NC2CCC3(CC2)CCN3C)c(F)cc1Nc1ncc(C(F)(F)F)c(Oc2ccccc2N(C)S(C)(=O)=O)n1 (stereo not drawn) [Compound 18] | > 2000 | < 10 | 5 to 50 |  |  |  |
| COc1cc(C(=O)NC2CCC3(CC2)CCN3C)c(F)cc1Nc1ncc(C(F)(F)F)c(Oc2cccc3c2C(=O)N(C)C3)n1 (stereo not drawn) [Compound 22] | > 2000 | < 10 | < 5 |  |  |  |
| COc1cc(C(=O)NC2COC3(CCN(C)CC3)C2)c(F)cc1Nc1ncc(C(F)(F)F)c(Oc2cccc3c2C(=O)N(C)C3)n1 (stereo not drawn) [Compound 23] | > 2000 | < 10 |  | 3.71 |  |  |
| COc1cc(C(=O)NC2CCC3(CCN(C)CC3)C2)c(F)cc1Nc1ncc(C(F)(F)F)c(Oc2cccc3c2C(=O)N(C)C3)n1 (stereo not drawn) [Compound 24] | > 2000 | < 10 | 5 to 50 |  |  |  |

| Compound | IC50 (PC3 cells [1]; Homo sapiens, PC-3) [nM] | IC50 (FAK recombinant protein) [nM] | IC50 (PC3 cells [2]; [3]) [nM] | IC50 (PC3 cells [2]; Homo sapiens, PC-3, 336 h, numeric (mean where marked *)) [nM] | IC50 (PC3 cells [1]) [nM] | IC50 (PC3 cells [2]; class symbol) [nM] |
| --- | --- | --- | --- | --- | --- | --- |
| COc1cc(C(=O)NC2CCC3(CC2)CCN(C)C3)c(F)cc1Nc1ncc(C(F)(F)F)c(Oc2cccc3c2C(=O)N(C)C3)n1 (stereo not drawn) [Compound 25] | > 2000 | < 10 | < 5 |  |  |  |
| COc1cc(C(=O)NC2CCC3(CC2)CCN(C)CC3)c(F)cc1Nc1ncc(C(F)(F)F)c(Oc2cccc3c2C(=O)N(C)C3)n1 [Compound 26] | > 2000 | < 10 | 5 to 50 |  |  |  |
| COc1cc(C(=O)NC2CCC3(CCN(C)C3)C2)c(F)cc1Nc1ncc(C(F)(F)F)c(Oc2cccc3c2C(=O)N(C)C3)n1 (stereo not drawn) [Compound 27] | > 2000 | < 10 | 5 to 50 |  |  |  |
| COc1cc(C(=O)NC2CCN3CCOC3C2)c(F)cc1Nc1ncc(C(F)(F)F)c(Oc2cccc3c2C(=O)N(C)C3)n1 (stereo not drawn) [Compound 30] | > 2000 | < 10 | 5 to 50 |  |  |  |
| COc1cc(C(=O)NC2CCN3CCN=C3C2)c(F)cc1Nc1ncc(C(F)(F)F)c(Oc2cccc3c2C(=O)N(C)C3)n1 (stereo not drawn) [Compound 31] | > 2000 | < 10 | 5 to 50 |  |  |  |
| COc1cc(C(=O)NC2CCn3ccnc3C2)c(F)cc1Nc1ncc(C(F)(F)F)c(Oc2cccc3c2C(=O)N(C)C3)n1 (stereo not drawn) [Compound 32] | > 2000 | < 10 | 5 to 50 |  |  |  |
| COc1cc(C(=O)NC2CCn3cnnc3C2)c(F)cc1Nc1ncc(C(F)(F)F)c(Oc2cccc3c2C(=O)N(C)C3)n1 (stereo not drawn) [Compound 33] | > 2000 | < 10 | 5 to 50 |  |  |  |
| COc1cc(C(=O)N2CCC3(CCN(C)CC3)CC2)c(F)cc1Nc1ncc(C(F)(F)F)c(Oc2cccc3c2C(=O)N(C)C3)n1 [Compound 35] | > 2000 | > 50 | > 50 |  |  |  |
| COc1cc(C(=O)N2CCC3(CCN(C)C3)C2)c(F)cc1Nc1ncc(C(F)(F)F)c(Oc2cccc3c2C(=O)N(C)C3)n1 (stereo not drawn) [Compound 36] | > 2000 | < 10 | 5 to 50 |  |  |  |
| COc1cc(C(=O)N2CCC3(CCN(C)C3)C2)c(F)cc1Nc1ncc(C(F)(F)F)c(Oc2cccc3c2C(=O)N(C)C3)n1 (stereo not drawn) [Compound 37] |  | < 10 |  |  | > 2000 | 5 to 50 |
| COc1cc(C(=O)N2CCC23CCN(C)CC3)c(F)cc1Nc1ncc(C(F)(F)F)c(Oc2cccc3c2C(=O)N(C)C3)n1 [Compound 38] | > 2000 | 10 to 50 | 5 to 50 |  |  |  |
| COc1cc(C(=O)N2CCC3(CCN(C)CC3)C2)c(F)cc1Nc1ncc(C(F)(F)F)c(Oc2cccc3c2C(=O)N(C)C3)n1 [Compound 39] | > 2000 | < 10 | 5 to 50 |  |  |  |
| COc1cc(C(=O)N2CCC3(CCCN(C)C3)C2)c(F)cc1Nc1ncc(C(F)(F)F)c(Oc2cccc3c2C(=O)N(C)C3)n1 (stereo not drawn) [Compound 40] | > 2000 | < 10 | 5 to 50 |  |  |  |
| COc1cc(C(=O)NC2CC3(CCNCC3)C2)c(F)cc1Nc1ncc(C(F)(F)F)c(Oc2cccc3c2C(=O)N(C)C3)n1 [Compound 41] | > 2000 | 10 to 50 | 5 to 50 |  |  |  |
| CCN1CCC2(CC1)CC(NC(=O)c1cc(OC)c(Nc3ncc(C(F)(F)F)c(Oc4cccc5c4C(=O)N(C)C5)n3)cc1F)C2 [Compound 42] | > 2000 | < 10 | < 5 |  |  |  |
| COc1cc(C(=O)NC2CC3(CCN(C)CC3)C2)c(Cl)cc1Nc1ncc(C(F)(F)F)c(Oc2cccc3c2C(=O)N(C)C3)n1 [Compound 43] | > 2000 | < 10 | < 5 |  |  |  |
| COc1cc(C(=O)NC2CCC3(CC2)CN(C)C3)c(Cl)cc1Nc1ncc(C(F)(F)F)c(Oc2cccc3c2C(=O)N(C)C3)n1 [Compound 44] | > 2000 | < 10 | 5 to 50 |  |  |  |
